The values that follow come from patent US11938121B2, “Treatment of infections and biofilm formation using a cellulose synthase inhibitor” (Purdue Research Foundation, priority 2020, dated 2024).

In one assay the test system is Arabidopsis Col-0. The experiment in a line: Crystalline cellulose content measurement of cell wall. Format: in vivo, Arabidopsis thaliana. The method, then:
Arabidopsis Col-0 seeds were sown on growth medium supplemented with 0.1% DMSO, 1 μM ES20, or different concentrations of ES20 analogs. […] Cellulose extraction and measurement were performed as previously described (Huang et al., 2020).

Another assay deals with rice (Oryza sativa). As to the kind of experiment: Rice seedling root growth. Format: in vivo. The conditions noted are these: 20 μM. The source says: ES20 has broad spectrum inhibitory effect on the growth of both dicotyledonous and monocotyledonous plants (Huang and Zhang, Plant Signal Behav. 2020, 15, 1780039). We tested whether ES20-1 has stronger inhibitory effect on the growth of monocotyledon plants than ES20. We grew rice (Oryza sativa) and maize (Zea mays) seedlings on the same concentrations of ES20 and ES20-1 and compared their effects on growth.

For assay [1], the target named is T1, YFP-AtCESA6 cellulose synthase complexes (CSCs) in root epidermal cells (Arabidopsis thaliana, UniProt Q94JQ6).
T1 construct: expressed in transfected cells; host or cells: transgenic Arabidopsis thaliana YFP-AtCESA6 seedlings (total protein extract for DARTS; root epidermal cells for imaging)
T1 sequence (O48946 whole entry): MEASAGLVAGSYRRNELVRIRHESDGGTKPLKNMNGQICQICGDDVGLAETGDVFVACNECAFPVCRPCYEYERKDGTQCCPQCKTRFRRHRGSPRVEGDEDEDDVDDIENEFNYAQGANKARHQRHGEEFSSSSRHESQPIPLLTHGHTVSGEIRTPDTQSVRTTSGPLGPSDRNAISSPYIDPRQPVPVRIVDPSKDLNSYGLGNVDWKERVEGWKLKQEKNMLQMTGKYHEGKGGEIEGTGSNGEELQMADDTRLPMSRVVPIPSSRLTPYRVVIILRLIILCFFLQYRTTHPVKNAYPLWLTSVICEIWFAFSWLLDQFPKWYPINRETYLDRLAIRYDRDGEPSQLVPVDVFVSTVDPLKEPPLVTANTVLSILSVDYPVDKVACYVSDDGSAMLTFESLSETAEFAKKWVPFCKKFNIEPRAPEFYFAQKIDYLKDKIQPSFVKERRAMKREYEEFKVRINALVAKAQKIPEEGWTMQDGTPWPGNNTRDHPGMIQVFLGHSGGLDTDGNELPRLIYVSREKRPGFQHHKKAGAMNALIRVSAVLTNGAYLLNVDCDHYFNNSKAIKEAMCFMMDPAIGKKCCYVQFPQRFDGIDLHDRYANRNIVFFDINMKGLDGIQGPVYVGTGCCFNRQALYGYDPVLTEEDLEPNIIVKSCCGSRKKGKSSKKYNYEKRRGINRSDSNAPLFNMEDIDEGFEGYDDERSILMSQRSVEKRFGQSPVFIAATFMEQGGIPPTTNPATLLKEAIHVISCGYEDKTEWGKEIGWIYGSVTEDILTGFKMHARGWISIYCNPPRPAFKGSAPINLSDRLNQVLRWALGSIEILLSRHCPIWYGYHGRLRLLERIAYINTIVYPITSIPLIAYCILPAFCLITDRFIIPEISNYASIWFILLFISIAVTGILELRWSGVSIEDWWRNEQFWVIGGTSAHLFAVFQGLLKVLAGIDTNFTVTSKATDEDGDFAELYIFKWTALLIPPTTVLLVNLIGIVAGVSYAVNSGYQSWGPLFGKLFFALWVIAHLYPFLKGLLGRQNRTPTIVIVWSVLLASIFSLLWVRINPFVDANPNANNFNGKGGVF
T1 sequence (Q941L0 whole entry, further chain): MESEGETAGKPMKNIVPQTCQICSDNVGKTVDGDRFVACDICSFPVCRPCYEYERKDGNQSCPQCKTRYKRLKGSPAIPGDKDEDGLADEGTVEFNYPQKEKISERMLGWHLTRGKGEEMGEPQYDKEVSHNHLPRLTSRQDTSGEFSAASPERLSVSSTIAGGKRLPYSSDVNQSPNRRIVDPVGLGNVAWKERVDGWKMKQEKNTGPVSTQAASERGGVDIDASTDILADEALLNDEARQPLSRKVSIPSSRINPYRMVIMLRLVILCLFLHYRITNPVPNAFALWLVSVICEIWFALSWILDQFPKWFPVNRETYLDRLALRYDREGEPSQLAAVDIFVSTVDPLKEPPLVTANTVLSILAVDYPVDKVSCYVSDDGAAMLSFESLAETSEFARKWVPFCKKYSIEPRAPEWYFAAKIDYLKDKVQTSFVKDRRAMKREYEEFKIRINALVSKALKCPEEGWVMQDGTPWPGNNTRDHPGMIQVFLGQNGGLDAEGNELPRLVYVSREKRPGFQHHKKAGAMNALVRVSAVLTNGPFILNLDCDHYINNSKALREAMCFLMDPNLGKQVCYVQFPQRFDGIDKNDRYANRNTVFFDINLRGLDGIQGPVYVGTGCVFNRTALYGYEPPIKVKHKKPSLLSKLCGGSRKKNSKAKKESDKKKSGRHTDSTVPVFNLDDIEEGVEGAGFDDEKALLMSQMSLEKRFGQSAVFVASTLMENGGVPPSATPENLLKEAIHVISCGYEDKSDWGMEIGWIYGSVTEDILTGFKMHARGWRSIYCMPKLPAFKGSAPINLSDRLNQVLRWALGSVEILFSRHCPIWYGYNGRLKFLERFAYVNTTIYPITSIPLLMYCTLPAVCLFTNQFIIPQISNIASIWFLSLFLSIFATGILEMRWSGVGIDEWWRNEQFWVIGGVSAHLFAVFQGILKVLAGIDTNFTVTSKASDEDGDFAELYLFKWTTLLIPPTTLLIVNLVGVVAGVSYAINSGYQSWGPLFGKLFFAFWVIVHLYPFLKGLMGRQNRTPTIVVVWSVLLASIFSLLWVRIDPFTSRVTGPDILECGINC
T1 sequence (Q94JQ6 whole entry): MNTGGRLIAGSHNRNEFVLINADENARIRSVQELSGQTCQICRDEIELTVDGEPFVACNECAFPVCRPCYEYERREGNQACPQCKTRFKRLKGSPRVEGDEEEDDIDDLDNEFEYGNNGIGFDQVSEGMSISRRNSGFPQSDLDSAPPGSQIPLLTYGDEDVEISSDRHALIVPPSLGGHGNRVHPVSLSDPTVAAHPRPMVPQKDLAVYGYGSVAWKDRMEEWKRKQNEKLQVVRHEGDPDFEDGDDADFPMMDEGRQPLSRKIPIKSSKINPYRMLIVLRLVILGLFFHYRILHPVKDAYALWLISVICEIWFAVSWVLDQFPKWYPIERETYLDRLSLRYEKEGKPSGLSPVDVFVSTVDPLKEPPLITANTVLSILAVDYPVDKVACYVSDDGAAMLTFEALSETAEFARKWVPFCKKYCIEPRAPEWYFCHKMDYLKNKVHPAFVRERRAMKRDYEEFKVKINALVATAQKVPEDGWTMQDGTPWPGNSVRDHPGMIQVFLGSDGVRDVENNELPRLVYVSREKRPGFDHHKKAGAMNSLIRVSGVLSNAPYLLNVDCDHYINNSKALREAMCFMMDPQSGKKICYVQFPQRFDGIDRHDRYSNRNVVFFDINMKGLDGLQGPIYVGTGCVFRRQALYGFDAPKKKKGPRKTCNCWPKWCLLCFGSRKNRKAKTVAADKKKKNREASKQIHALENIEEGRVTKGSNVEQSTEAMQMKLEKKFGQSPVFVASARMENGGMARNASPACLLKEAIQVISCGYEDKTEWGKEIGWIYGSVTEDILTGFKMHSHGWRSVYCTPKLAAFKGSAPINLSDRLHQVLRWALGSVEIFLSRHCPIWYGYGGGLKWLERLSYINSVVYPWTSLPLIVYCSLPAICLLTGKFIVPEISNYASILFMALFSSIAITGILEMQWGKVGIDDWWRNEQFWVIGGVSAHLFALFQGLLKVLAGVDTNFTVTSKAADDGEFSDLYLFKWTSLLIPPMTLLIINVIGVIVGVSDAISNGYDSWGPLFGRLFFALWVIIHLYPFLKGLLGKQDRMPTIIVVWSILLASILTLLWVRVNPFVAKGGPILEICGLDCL
As to the kind of experiment: Spinning-disk confocal live-cell imaging of CSC trafficking. Type of assay: cell-based. The conditions noted are these: 6 μM. The protocol:
For SDCM live cell imaging, seedlings were grown vertically for 5 d, and images were taken from the 2nd or 3rd epidermal cell below the first obvious root hair in the root elongation zone. Two thin strips of double-sided adhesive tape were placed on top of glass slides approximately 2 cm apart. 100 μl of ½-strength MS liquid growth medium containing 0.1% DMSO or 6 μM of ES20-1 was applied to the slide, and seedlings were mounted in the liquid medium. A 22×40 mm cover glass was placed on top of the double-sided tape for imaging. For longer term imaging during CESA velocity analysis, seedlings were mounted on a piece of 1-mm thick 0.6% Phytagel pad affixed to the glass slide to minimize compression and liquid evaporation.
To examine the cellular localization of YFP-AtCESA6 and YFP-AtCESA6; ManI-CFP, SDCM imaging was performed using a CSU-X1-A1 Yokogawa scanning unit mounted on an Olympus IX-83 microscope equipped with a 100×/1.4NA UPlanSApo oil objective (Olympus) and an Andor iXon Ultra 897BV EMCCD camera (Andor Technology). YFP and CFP fluorescence was excited with 515-nm and 445-nm laser lines and emission collected through 542/27-nm and 479/40-nm filters, respectively.
For fluorescence recovery after photobleaching (FRAP) experiments, images were collected using a Zeiss Observer Z.1 microscope, equipped with a Yokogawa CSU-X1 head and a 100×/1.46 NA PlanApo objective (Zeiss). For the PM-localized CESA6 FRAP, photobleaching was performed with a Vector scanner (Intelligent Imaging Innovations) with a 515-nm laser line at 100% power and 1 ms/scan. Timelapse images were collected at the PM with a 10-s interval for 64 frames, with photobleaching in a small region (44.2 μm^2) after the 4th frame, and recovery for total 10 min.
Image analysis was performed using ImageJ. For CESA particle density analyses, regions of interest (ROIs) without abundant Golgi signals were chosen using the Freehand selection tool. CESA particles were detected automatically on 8-bit images using the Find Maxima tool with the same noise threshold for all images. CESA particle density for each ROI was calculated by dividing the number of particles by the ROI area. To analyze CESA particle dynamics, 5-min time-lapse series with 5-s intervals were collected. Average intensity projections were generated to identify the trajectories of CSC particles. Image drift was corrected using the StackReg plugin (Thevenaz et al., 1998). Kymographs were generated, and the velocities of CESA particles were measured as the reciprocal of the slope of individual CESA particles in the kymographs. To quantify cortical vesicles, 1 μm z-series stack with 0.2 μm as the step size and 20-s time-lapses were collected. The focal plane at 0.4 μm below the PM was used for cortical SmaCC analysis. Small particles showing motility in time-lapse series were considered to be SmaCCs. For the FRAP assay of PM-localized CSCs, a smaller area (16 μm^2) within the bleached region was used for analyses. The CSC delivery events during the first 5 min of recovery were manually counted according to the criteria described previously (Li et al., Proc. Natl. Acad Sci. USA, 2016, 113, 11348-11353). […] The CSC delivery rate was calculated by dividing the number of delivery events by the measured area and time.

For the compound `Cc1ccccc1C(=O)NNC(=S)NC(=O)c1ccccc1` [ES20-1], the “crystalline cellulose content in hypocotyl cell wall” value in the assay with Arabidopsis Col-0 (1 μM, 7-day-old dark-grown seedlings, mean±SD, n=3) came to 90 ± 6 µg/mg. The “reduction of crystalline cellulose levels in the hypocotyl” value in the assay with Arabidopsis Col-0 (1 μM, 7-day-old dark-grown seedlings, vs DMSO) was ~45%. In addition, the “root cell wall crystalline cellulose content” value with Arabidopsis Col-0 (7-day-old light-grown seedlings, different concentrations) is listed as “very potent in inhibiting cellulose biosynthesis in roots”. Moreover, the “rice root growth inhibition” value with rice (Oryza sativa) (6-day-old seedlings) was “could inhibit the root growth”. Further, in the assay with rice (Oryza sativa) (same dosage), the “degree of rice root growth inhibition compared with ES20” value was “much stronger than that of the same dosage of ES20”. In addition, the “reduction of CSC delivery rate to PM (FRAP)” value in assay [1] (5 min recovery after photobleaching, vs DMSO) is ~35%. Also, the “CSC delivery rate to PM (FRAP)” value in assay [1] (5 min recovery, mean±SE, n=10 cells) turned out to be 1.41±0.19 particle/μm^2/h. Also, the “abundance of cortical SmaCCs” value in assay [1] (10 min, mean±SE, n=24 cells) came to 7.07±0.34 particle/100 μm^2. The “abundance (density) of CSCs at the PM” value in assay [1] (10 min, mean±SE, n=32 cells) is recorded as 0.64±0.03 particle/μm^2. Besides, in assay [1] (10 min, vs DMSO), the “decrease of abundance of CSCs at the PM” value is reported as ~30% and the “increase of abundance of cortical SmaCCs” value is ~30%. In addition, in assay [1] (30 min, mean±SE, n=325), the “velocity of CSC particles at the PM” value amounted to 0.152 ± 0.005 ×10⁻⁶ cm/s. For the same compound, the “decrease of velocity of CSC particles at the PM” value in assay [1] (30 min, vs DMSO) is listed as ~35%. For the same compound, the “integrated fluorescence intensity of Golgi-localized YFP-AtCESA6” value in assay [1] (1 h, mean±SE, n=55) is recorded as 8684.50±535.60. In addition, the “integrated fluorescence intensity of ManI-CFP” value in assay [1] (1 h, same cell) is reported as “not affected”. The “increase of integrated fluorescence intensity of Golgi-localized YFP-AtCESA6” value in assay [1] (1 h, vs DMSO) was “more than 25%”.
